CC(=O)OC(OC(C)=O)c1ccc([N+](=O)[O-])o1
solubility (mole fraction)
Settings	in 1,4-dioxane	in DMF	in THF	in acetone	in acetonitrile	in ethyl acetate	in methanol	in n-hexane	in n-propanol	in toluene
278.15 K	0.0821	0.161	0.121	0.0864	0.0016	0.002	0.0778	0.0285	0.0435	0.141
283.15 K	0.0954	0.174	0.146	0.108	0.002	0.0031	0.0834	0.0358	0.0474	0.154
288.15 K	0.109	0.192	0.181	0.127	0.0028	0.0048	0.0898	0.0458	0.0513	0.171
293.15 K	0.131	0.209	0.217	0.156	0.0038	0.0068	0.0995	0.0562	0.0571	0.192
298.15 K	0.146	0.227	0.256	0.182	0.0052	0.0101	0.108	0.0721	0.0625	0.211
303.15 K	0.166	0.248	0.298	0.214	0.0069	0.0143	0.118	0.0883	0.0687	0.239
308.15 K	0.188	0.271	0.341	0.249	0.0093	0.02	0.129	0.109	0.0761	0.267
313.15 K	0.214	0.296	0.385	0.291	0.0126	0.0283	0.143	0.133	0.0843	0.293
318.15 K	0.237	0.319	0.434	0.33	0.0167	0.0405	0.155	0.162	0.0924	0.33
323.15 K	0.267	0.351	0.488	0.379	0.0215	0.0548	0.173	0.196	0.104	0.373

Reference: BigSolDB 2.1
